Where a SMILES comes first, the peptide text is derived from it. The star is where a group is joined. AMC = Cc1cc(=O)oc2cc(N*)ccc12; Cbz = O=C(OCc1ccccc1)*
Key:
AtLEGβ = details: ref Dall et al., [2020]; cited from earlier work
Text: To probe non‐prime side specificity, we constructed a second peptide library using the format XXXN‐CL, fixing P1' as cysteine and P2' as leucine, based on the highest‐scoring sequences from the prime‐side screen. […] Thr and Val were especially well tolerated, a trend that persisted when P2 was fixed as Ala and P3/P4 were varied (Figure S7b). These predictions were validated experimentally by comparing AtLEGβ affinity for Z‐AAN‐AMC versus Z‐VAN‐AMC fluor ...

human legumain (hLEG) = target: T1, human legumain (hLEG) (Homo sapiens, UniProt Q99538); test: Enzyme kinetic assay with fluorogenic AMC substrates, hLEG; type: biochemical; details: 2 nM hLEG; for Km: 50 mM citric acid pH 5.5, 100 mM NaCl, 0.05% Tween-20, 37°C, ex 380/em 460 nm, Michaelis-Menten (Z-AAN-AMC) or substrate inhibition model (Z-VAN-AMC)
T1 construct: inferred from the Ni-NTA purification of the proenzyme; made in house; host or cells: LEXSY P10 cells (Leishmania tarentolae expression system), secreted into the supernatant
T1 sequence (Q99538 18-323 limits assumed): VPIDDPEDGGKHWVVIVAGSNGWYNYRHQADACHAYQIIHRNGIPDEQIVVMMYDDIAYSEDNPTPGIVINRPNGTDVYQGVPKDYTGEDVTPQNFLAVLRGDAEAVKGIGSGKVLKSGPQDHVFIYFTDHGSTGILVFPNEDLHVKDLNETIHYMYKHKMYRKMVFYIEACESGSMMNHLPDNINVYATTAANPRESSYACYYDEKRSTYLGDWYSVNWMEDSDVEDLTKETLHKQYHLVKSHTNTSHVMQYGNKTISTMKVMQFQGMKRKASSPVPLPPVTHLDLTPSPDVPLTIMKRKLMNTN
Procedure: K m values for the substrates Z‐AAN‐AMC (benzyloxycarbonyl‐Ala‐Ala‐Asn‐7‐amino‐4‐methylcoumarin) and Z‐VAN‐AMC (benzyloxycarbonyl‐Val‐Ala‐Asn‐7‐amino‐4‐methylcoumarin) toward hLEG were determined in 50 mM citric acid buffer (pH 5.5) containing 100 mM NaCl and 0.05% Tween‐20. Reactions were carried out at 37°C with 2 nM hLEG. Substrate concentrations ranged from 100 to 0.787 μM for Z‐AAN‐AMC and from 75 to 0.28 μM for Z‐VAN‐AMC.
Reactions were initiated by addition of the enzyme, and fluorescence was monitored in a microplate reader (CLARIOstar Plus with Voyager v2405 software, BMG Labtech) at 380 nm excitation and 460 nm emission. All measurements were performed in triplicate (n = 3).
Data analysis was performed in GraphPad Prism (v9.3.1; GraphPad Software, La Jolla, CA) using the built‐in Michaelis–Menten model for Z‐AAN‐AMC and the substrate inhibition model for Z‐VAN‐AMC. Data points corresponding to 23.73 μM Z‐VAN‐AMC were excluded from analysis, as a linear fit of the initial slope was not possible. Standard errors of the curve fits are reported for all fitted parameters.

[1] = pH 5.5, 37°C, n = 3, ± standard error of fit (Figure 9)

Row | Km (human legumain (hLEG); n = 3, ± standard error of fit) | Km (human legumain (hLEG); n = 3, ± standard error of fit, listed as Z-VAN-AMC) | Vmax ratio Z-VAN-AMC vs Z-AAN-AMC (human legumain (hLEG); pH 5.5, 37°C) | Vmax (human legumain (hLEG); pH 5.5, 37°C, n = 3) | Vmax (human legumain (hLEG); [1]) | Ki (human legumain (hLEG); pH 5.5, 37°C, substrate inhibition model, n = 3, ± standard error of fit) | Km (human legumain (hLEG); n = 3, ± standard error of fit, listed as Z-AAN-AMC) | Compound | Km (AtLEGβ)
1 | ~20 µM | 19.6 ± 5.32 µM | ~ 20 fold | 7800 RFU/s | 7776 ± 1591 RFU/sec | 16.2 ± 4.5 µM |  | Cc1cc(=O)oc2cc(NC(=O)[C@H](CC(N)=O)NC(=O)[C@H](C)NC(=O)[C@@H](NC(=O)OCc3ccccc3)C(C)C)ccc12 [Z‐VAN‐AMC, benzyloxycarbonyl‐Val‐Ala‐Asn‐7‐amino‐4‐methylcoumarin] (Cbz-Val-Ala-Asn-{AMC}) | 57 ± 3 µM
2 | 55 µM |  |  | 400 RFU/s | 399.6 ± 8.6 RFU/sec |  | 55.5 ± 2.4 µM | benzyloxycarbonyl‐Ala‐Ala‐Asn‐7‐amino‐4‐methylcoumarin [Z‐AAN‐AMC] | 337 ± 3 µM
